Experiments:
Type in all cases: in vivo
[1] = system: barnyardgrass (Echinochloa crus-galli); assay: Test B flooded paddy test; details: Flood, 250 g ai/ha; 0 to 100 scale where 0 is no effect and 100 is complete control; 13 to 15 d
Method in brief: (§1)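 Response scored visually against untreated controls, 0 = no effect and 100 = complete control, 13–15 d after treatment in the greenhouse. Compounds added to paddy water held 3 cm above soil surface. Treatment given at 2-leaf stage.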

[2] = system: sedge, umbrella (small-flower umbrella sedge, Cyperus difformis); assay: Test B flooded paddy test; details: Flood, 250 g ai/ha; 0 to 100 scale where 0 is no effect and 100 is complete control; 13 to 15 d
Method in brief: as §1

rice (Oryra sativa) = assay: Test B flooded paddy test; details: Flood, 250 g ai/ha; 0 to 100 scale where 0 is no effect and 100 is complete control; 13 to 15 d
Method in brief: as §1

[3] = system: ducksalad (Heteranthera limosa); assay: Test B flooded paddy test; details: Flood, 250 g ai/ha; 0 to 100 scale where 0 is no effect and 100 is complete control; 13 to 15 d
Method in brief: as §1

[4] = system: barnyardgrass (Echinochloa crus-galli); assay: Test A postemergence; details: postemergence
Method in brief: (§2)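 Ratings of 0 (no effect) to 100 (complete control) come from visual comparison with untreated controls roughly 10 d after treatment. Test chemicals, formulated in a non-phytotoxic solvent mixture with surfactant, were applied either as a preemergence directed soil spray on seeded soil or postemergence to one- to two-leaf plants 2 to 10 cm tall.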

Kochia (Kochia scoparia) [5] = assay: Test A postemergence; details: postemergence
Method in brief: as §2

[6] = system: ryegrass, Italian (Italian ryegrass, Lolium multiflorum); assay: Test A postemergence; details: postemergence
Method in brief: as §2

corn (Zea mays) = assay: Test A postemergence; details: postemergence
Method in brief: as §2

[7] = system: wheat (Triticum aestivum); assay: Test A postemergence; details: postemergence
Method in brief: as §2

[8] = system: blackgrass (Alopecurus myosuroides); assay: Test A postemergence; details: postemergence
Method in brief: as §2

[9] = system: ragweed (common ragweed, Ambrosia elatior); assay: Test A postemergence; details: postemergence
Method in brief: as §2

[10] = system: giant foxtail (Setaria faberii); assay: Test A postemergence; details: postemergence
Method in brief: as §2

[11] = system: pigweed (Amaranthus retroflexus); assay: Test A postemergence; details: postemergence
Method in brief: as §2

[12] = system: Galium (catchweed bedstraw, Galium aparine); assay: Test A postemergence; details: postemergence
Method in brief: as §2

[13] = system: barnyardgrass (Echinochloa crus-galli); assay: Test A preemergence
Method in brief: as §2

Kochia (Kochia scoparia) [14] = assay: Test A preemergence
Method in brief: as §2

[15] = system: ryegrass, Italian (Italian ryegrass, Lolium multiflorum); assay: Test A preemergence
Method in brief: as §2

[16] = system: ragweed (common ragweed, Ambrosia elatior); assay: Test A preemergence
Method in brief: as §2

[17] = system: giant foxtail (Setaria faberii); assay: Test A preemergence
Method in brief: as §2

[18] = system: pigweed (Amaranthus retroflexus); assay: Test A preemergence
[19] = 125 g ai/ha, visual injury rating on 0 to 100 scale (0 no effect, 100 complete control), approx. 10 d
[20] = 500 g ai/ha, 0 to 100 scale, 0 no effect, 100 complete control
[21] = 125 g ai/ha, preemergence, 0 to 100 scale (0 no effect, 100 complete control)
[22] = Preemergence, 500 g ai/ha, visual injury approx. 10 d

Cc1ccc(C2CN(C)C(=O)C2C(=O)Nc2ccccc2F)cc1F (stereo not drawn) [Compound 465]
Plant response rating, Barnyardgrass [1]: 80 | Plant response rating, Sedge, Umbrella [2]: 0 | Plant response rating, Rice (rice (Oryra sativa)): 0 | Plant response rating, Ducksalad [3]: 100 | Barnyardgrass plant response rating [4, 19]: 90 | Plant response rating, Barnyardgrass [4, 20]: 90 | Kochia plant response rating (Kochia (Kochia scoparia) [5]; [19]): 50 | Plant response rating, Kochia (Kochia (Kochia scoparia) [5]; [20]): 60 | Ryegrass, Italian plant response rating [6, 19]: 60 | Plant response rating, Ryegrass, Italian [6, 20]: 70 | Corn plant response rating (corn (Zea mays); [19]): 80 | Plant response rating, Corn (corn (Zea mays); [20]): 90 | Wheat plant response rating [7, 19]: 60 | Plant response rating, Wheat [7, 20]: 70 | Blackgrass plant response rating [8, 19]: 40 | Plant response rating, Blackgrass [8, 20]: 70 | Ragweed plant response rating [9, 19]: 0 | Plant response rating, Ragweed [9, 20]: 30 | Foxtail, Giant plant response rating [10, 19]: 90 | Plant response rating, Foxtail, Giant [10, 20]: 90 | Pigweed plant response rating [11, 19]: 0 | Plant response rating, Pigweed [11, 20]: 20 | Galium plant response rating [12, 19]: 60 | Plant response rating, Galium [12, 20]: 60 | Plant response rating, Barnyardgrass [13, 21]: 90 | Barnyardgrass plant response rating (0 to 100 scale, 0 is no effect, 100 is complete control) [13, 22]: 100 | Plant response rating, Kochia (Kochia (Kochia scoparia) [14]; [21]): 80 | Kochia plant response rating (0 to 100 scale, 0 is no effect, 100 is complete control) (Kochia (Kochia scoparia) [14]; [22]): 80 | Plant response rating, Ryegrass, Italian [15, 21]: 70 | Ryegrass, Italian plant response rating (0 to 100 scale, 0 is no effect, 100 is complete control) [15, 22]: 70 | Plant response rating, Ragweed [16, 21]: 40 | Ragweed plant response rating (0 to 100 scale, 0 is no effect, 100 is complete control) [16, 22]: 70 | Plant response rating, Foxtail, Giant [17, 21]: 100 | Foxtail, Giant plant response rating (0 to 100 scale, 0 is no effect, 100 is complete control) [17, 22]: 100 | Plant response rating, Pigweed [18, 21]: 50 | Pigweed plant response rating (0 to 100 scale, 0 is no effect, 100 is complete control) [18, 22]: 70
